These results are taken from publication PMC6506705 (2019).

The test system of experiment [1] is EA#14.3K42 non-labelled (DNA, aptamer) ATACCAGCTTATTCAATTTGAGGCGGGTGGGTGGGTTGAATA
Briefly: dye fluorescence melting profile, qualitative. The conditions noted are these: 100 mM NaCl; 20 mM TRIS, 0.02% Tween 20, pH 7.6; 10x dye; 0.5-4 μM aptamer.

For experiment [2], the system named is EA#14.3K31 non-labelled (DNA, aptamer) ATTCAATTTGAGGCGGGTGGGTGGGTTGAAT
Briefly: dye fluorescence melting profile, qualitative. The conditions noted are these: 100 mM NaCl; 20 mM TRIS, 0.02% Tween 20, pH 7.6; 10x dye; 0.5-4 μM aptamer.

As for `CCCN(CCCN(C)C)c1cc(C=C2Sc3ccccc3N2C)c2ccccc2[n+]1-c1ccccc1`, the binding result in experiment [1] and in experiment [2] was “yes” each time.
